From PubChem BioAssay AID248 (DTP/NCI, 2004)
“And” between values parts separate entries of the source, which are not always exact repeats. Equal values may be shown once. Inconclusive results and toxic doses are left out. Cut-off read from the data, not from the text of the source: active = T/C of 150% or more; inactive = T/C below 125%.

Test system: L1210 leukemia ip in BDF1 mice, survival T/C
Test: NCI In Vivo Anticancer Drug Screen. Data for tumor model L1210 Leukemia (intraperitoneal) in B6D2F1 (BDF1) mice
Details: endpoint: mean survival time, higher = longer survival
In short: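 In this screen, tumor-bearing mice given compound are compared to those given vehicle, and their survival values are reported as a treated-to-control quotient.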

[1] = dose: 50.0 mg/kg/injection, schedule: Q01DX009 (ip), vehicle: saline with Tween-80
[2] = dose: 100.0 mg/kg/injection, schedule: Q01DX009 (ip), vehicle: saline with Tween-80
[3] = dose: 200.0 mg/kg/injection, schedule: Q01DX009 (ip), vehicle: saline with Tween-80
[4] = dose: 100.0 mg/kg/injection, schedule: Q01DX009 (ip), vehicle: saline
[5] = dose: 100.0 mg/kg/injection, schedule: Q04DX003 (ip), vehicle: saline with Tween-80
[6] = dose: 200.0 mg/kg/injection, schedule: Q01DX009 (ip), vehicle: saline
[7] = dose: 200.0 mg/kg/injection, schedule: Q04DX003 (ip), vehicle: saline with Tween-80
[8] = dose: 400.0 mg/kg/injection, schedule: Q04DX003 (ip), vehicle: saline with Tween-80
[9] = dose: 50.0 mg/kg/injection, schedule: Q04DX002 (ip), vehicle: saline with Tween-80
[10] = dose: 100.0 mg/kg/injection, schedule: Q04DX002 (ip), vehicle: saline with Tween-80
[11] = dose: 200.0 mg/kg/injection, schedule: Q04DX002 (ip), vehicle: saline with Tween-80
[12] = dose: 100.0 mg/kg/injection, schedule: Q01DX001 (ip), vehicle: carboxymethylcellulose (CMC)
[13] = dose: 200.0 mg/kg/injection, schedule: Q01DX001 (ip), vehicle: carboxymethylcellulose (CMC)
[14] = dose: 400.0 mg/kg/injection, schedule: Q01DX001 (ip), vehicle: carboxymethylcellulose (CMC)
[15] = dose: 100.0 mg/kg/injection, schedule: Q01DX009 (ip), vehicle: Klucel (hydroxypropylcellulose) (HPC)
[16] = dose: 100.0 mg/kg/injection, schedule: Q04DX003 (ip), vehicle: Klucel (hydroxypropylcellulose) (HPC)
[17] = dose: 200.0 mg/kg/injection, schedule: Q01DX009 (ip), vehicle: Klucel (hydroxypropylcellulose) (HPC)
[18] = dose: 200.0 mg/kg/injection, schedule: Q04DX003 (ip), vehicle: Klucel (hydroxypropylcellulose) (HPC)
[19] = dose: 400.0 mg/kg/injection, schedule: Q01DX009 (ip), vehicle: Klucel (hydroxypropylcellulose) (HPC)
[20] = dose: 400.0 mg/kg/injection, schedule: Q04DX003 (ip), vehicle: Klucel (hydroxypropylcellulose) (HPC)

Measured: T/C

CC(C)CC(C)NCC(C)OC(=O)c1ccc(N)cc1 (stereo not drawn)
inactive: dose: 75.0 mg/kg/injection, schedule: Q01DX001 (ip), vehicle: other 110 % of control

Cc1ccc(S(=O)(=O)NC(CCl)=NCC23CC4CC(CC(C4)C2)C3)cc1
inactive: dose: 31.3 mg/kg/injection, schedule: Q04DX002 (ip), vehicle: Klucel (hydroxypropylcellulose) (HPC) 113 % of control | dose: 62.5 mg/kg/injection, schedule: Q04DX002 (ip), vehicle: Klucel (hydroxypropylcellulose) (HPC) 94 % of control | dose: 125.0 mg/kg/injection, schedule: Q04DX002 (ip), vehicle: Klucel (hydroxypropylcellulose) (HPC) 94 % of control

CCCCCCCCCCCCCCCCCCNC(=O)NNC(=O)CCCC(=O)NNC(=O)NCCCCCCCCCCCCCCCCCC
inactive: dose: 50.0 mg/kg/injection, schedule: Q01DX001 (ip), vehicle: saline 91 % of control | dose: 100.0 mg/kg/injection, schedule: Q01DX001 (ip), vehicle: saline 97 % of control | dose: 200.0 mg/kg/injection, schedule: Q01DX001 (ip), vehicle: saline 100 % of control | dose: 400.0 mg/kg/injection, schedule: Q01DX001 (ip), vehicle: saline 97 % of control

COc1cccc(C(C)(C)CO)c1
inactive: [1] 93 % of control | [2] 89 % of control | [3] 89 % of control

COc1cc(Br)c(CCC(=O)O)cc1OC
inactive: [4] 97 % of control | [5] 96 % of control | [6] 94 % of control | [7] 114 % of control | dose: 400.0 mg/kg/injection, schedule: Q01DX009 (ip), vehicle: saline 100 % of control | [8] 91 % of control

CCC1(CC)CC1(Cl)Cl
inactive: dose: 75.0 mg/kg/injection, schedule: Q01DX001 (ip), vehicle: acetone 108 % of control | dose: 150.0 mg/kg/injection, schedule: Q01DX001 (ip), vehicle: acetone 101 % of control

CC(=O)NCC(O)C(O)C(/C=N/Nc1ccccc1)=N/Nc1ccccc1 (stereo not drawn)
inactive: [9] 91 % of control | [10] 87 % of control | [11] 95 % of control

NC(=O)C(C(N)=O)C1CCCCc2ccccc21 (stereo not drawn)
inactive: [12] 90 % of control | [13] 106 % of control | [14] 88 % of control

COC(=O)C1=C(\N2CCOCC2)CCCC/C=C\1C(=O)OC
inactive: [12] 108 % of control | [13] 105 % of control | [14] 102 % of control

O=C1C2(c3ccccc3)C(c3ccccc3)=C(c3ccccc3)C1(c1ccccc1)C1CC=CC12 (stereo not drawn)
inactive: [2] 98 % of control | [5] 96 % of control | [3] 100 % of control | [7] 104 % of control | [8] 96 % of control

CN(C)Cc1ccnc(Cl)n1
inactive: dose: 2.0 mg/kg/injection, schedule: Q01DX Z (ip), vehicle: methylcellulose (MC) 93 % of control

CN(C)/C=C1\CCOC1=O
inactive: dose: 100.0 mg/kg/injection, schedule: Q04DX002 (ip), vehicle: saline 101 % of control | dose: 200.0 mg/kg/injection, schedule: Q04DX002 (ip), vehicle: saline 119 % of control

CC(C)(C)CC(C)(C)c1ccc(OCCOc2ccccc2NS(=O)(=O)c2ccc(N)cc2)cc1
inactive: dose: 50.0 mg/kg/injection, schedule: Q01DX009 (ip), vehicle: saline 94 % of control | [4] 91 % of control | [6] 91 % of control

c1ccc(-c2cnoc2-c2ccccc2)cc1
inactive: [15] 107 % of control | [16] 111 % of control | [17] 106 % of control | [18] 95 % of control | [19] 102 % of control | [20] 101 % of control

CC(C)c1ccccc1NC1=NCCO1
inactive: dose: 12.5 mg/kg/injection, schedule: Q01DX009 (ip), vehicle: Klucel (hydroxypropylcellulose) (HPC) 86 % of control | dose: 25.0 mg/kg/injection, schedule: Q01DX009 (ip), vehicle: Klucel (hydroxypropylcellulose) (HPC) 89 % of control | dose: 25.0 mg/kg/injection, schedule: Q04DX002 (ip), vehicle: saline with Tween-80 101 % of control | dose: 50.0 mg/kg/injection, schedule: Q01DX009 (ip), vehicle: Klucel (hydroxypropylcellulose) (HPC) 96 % of control and 89 % of control | [9] 96 % of control | [10] 86 % of control | [11] 86 % of control

CCCCCCCCCCCC(c1ccccc1)[N+](C)(C)C (stereo not drawn)
inactive: dose: 0.5 mg/kg/injection, schedule: Q01DX001 (ip), vehicle: saline 103 % of control | dose: 1.0 mg/kg/injection, schedule: Q01DX001 (ip), vehicle: saline 94 % of control | dose: 1.0 mg/kg/injection, schedule: Q01DX009 (ip), vehicle: saline 91 % of control | dose: 2.0 mg/kg/injection, schedule: Q01DX001 (ip), vehicle: saline 100 % of control | dose: 2.0 mg/kg/injection, schedule: Q01DX009 (ip), vehicle: saline 109 % of control | dose: 4.0 mg/kg/injection, schedule: Q01DX001 (ip), vehicle: saline 96 % of control | dose: 4.0 mg/kg/injection, schedule: Q01DX009 (ip), vehicle: saline 110 % of control | dose: 8.0 mg/kg/injection, schedule: Q01DX001 (ip), vehicle: saline 97 % of control

c1ccc(C2NC2c2ccccc2)cc1 (stereo not drawn)
inactive: dose: 50.0 mg/kg/injection, schedule: Q01DX001 (ip), vehicle: carboxymethylcellulose (CMC) 112 % of control | [12] 97 % of control | [16] 103 % of control | [13] 97 % of control | [18] 95 % of control | [20] 91 % of control

CCOCC(O)(c1ccc(Cl)cc1)c1ccc(Cl)cc1
inactive: [5] 106 % of control | [7] 95 % of control | [8] 102 % of control

CN(C=O)C(=S)[S][Sb]([S]C(=S)Nc1ccc(S(=O)(=O)Nc2ccc(N=Nc3ccccc3)cc2)cc1)[S]C(=S)N(C)C=O
inactive: dose: 100.0 mg/kg/injection, schedule: Q01DX001 (ip), vehicle: steriod suspending solution 106 % of control | dose: 200.0 mg/kg/injection, schedule: Q01DX001 (ip), vehicle: steriod suspending solution 90 % of control

CNc1ccccc1C(=O)N/N=C/c1ccc(O)c(OC)c1
inactive: dose: 100.0 mg/kg/injection, schedule: Q04DX002 (ip), vehicle: Klucel (hydroxypropylcellulose) (HPC) 99 % of control | dose: 200.0 mg/kg/injection, schedule: Q04DX002 (ip), vehicle: Klucel (hydroxypropylcellulose) (HPC) 93 % of control | dose: 400.0 mg/kg/injection, schedule: Q04DX002 (ip), vehicle: Klucel (hydroxypropylcellulose) (HPC) 96 % of control

CCOc1ccc2nc(/C=C\c3cc4c5c(c3)CCCN5CCC4)ccc2c1
inactive: [15] 87 % of control | [16] 95 % of control | [17] 97 % of control | [18] 98 % of control | [19] 97 % of control | [20] 98 % of control

COC(=O)/C(C#N)=C\c1ccccc1
inactive: [5] 95 % of control | [7] 101 % of control

Cc1cc2c(cc1C)C(=O)OC2=O
inactive: [2] 102 % of control | [3] 98 % of control | dose: 400.0 mg/kg/injection, schedule: Q01DX009 (ip), vehicle: saline with Tween-80 100 % of control

COC(=O)CC(=O)C(C)(C)C
inactive: [1] 101 % of control | [2] 101 % of control | [3] 101 % of control
